According to patent US20250171438A1 (Agios Pharmaceuticals, Inc., priority 2022, published 2025):

What follows are molecules tested against T1, human PAH with the R408W mutation (Homo sapiens, UniProt P00439, R408W) (assay: Cell Based Phenylalanine Flux Assay). Settings: A375 cells expressing human R408W PAH; 24 hrs compound incubation; 13C-Tyrosine by LC-MS; average where tested multiple times; read-out: AC50.
T1 construct: expressed in transfected cells
T1 sequence (P00439 1-452 R408W): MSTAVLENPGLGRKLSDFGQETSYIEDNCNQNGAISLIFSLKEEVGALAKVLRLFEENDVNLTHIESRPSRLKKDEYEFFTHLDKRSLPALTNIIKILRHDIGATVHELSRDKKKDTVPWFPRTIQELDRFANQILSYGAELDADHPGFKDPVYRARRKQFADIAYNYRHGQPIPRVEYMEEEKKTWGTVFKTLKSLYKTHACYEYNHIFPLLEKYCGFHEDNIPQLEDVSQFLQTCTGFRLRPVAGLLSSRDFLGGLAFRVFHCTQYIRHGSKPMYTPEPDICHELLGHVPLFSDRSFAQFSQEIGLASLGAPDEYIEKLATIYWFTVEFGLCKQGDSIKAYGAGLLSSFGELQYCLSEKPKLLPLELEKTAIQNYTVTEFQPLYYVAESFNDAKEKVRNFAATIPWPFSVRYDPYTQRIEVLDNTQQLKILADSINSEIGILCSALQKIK
An AC50 of 500 to 1000 nM was found for `O=C(c1nnc(-c2cc(C(F)(F)F)ccn2)o1)N1CCc2[nH]cnc2[C@@H]1c1nc2c(F)cccc2s1` [Example 1905, (R)-(4-(4-fluorobenzo[d]thiazol-2-yl)-6,7-dihydro-1H-imidazo[4,5-c]pyridin-5(4H)-yl)(5-(4-(trifluoromethyl)pyridin-2-yl)-1,3,4-oxadiazol-2-yl)methanone] in this work.
An AC50 of less than 500 nM was found for `CC(C)(O)c1nc(Br)c(C(=O)N2CCc3[nH]cnc3[C@H]2c2nc3c(F)cccc3s2)s1` [Example 2093, (S)-(4-bromo-2-(2-hydroxypropan-2-yl)thiazol-5-yl)(4-(4-fluorobenzo[d]thiazol-2-yl)-6,7-dihydro-1H-imidazo[4,5-c]pyridin-5(4H)-yl)methanone] in this work.
An AC50 greater than 5000 nM was found for `N#Cc1nc(OCCC(F)(F)F)oc1C(=O)N1CCc2[nH]cnc2[C@@H]1c1nc2ccccc2s1` [Example 1673, (R)-5-(4-(benzo[d]thiazol-2-yl)-4,5,6,7-tetrahydro-1H-imidazo[4,5-c]pyridine-5-carbonyl)-2-(3,3,3-trifluoropropoxy)oxazole-4-carbonitrile] in this work.
An AC50 of 1000 to 5000 nM was found for `O=C(C1CC1)N1CCc2[nH]cnc2[C@H]1c1nc2ccc(Cl)cc2[nH]1` [Example 960, (S)-(4-(6-chloro-1H-benzo[d]imidazol-2-yl)-6,7-dihydro-1H-imidazo[4,5-c]pyridin-5(4H)-yl)(cyclopropyl)methanone] in this work.
An AC50 of less than 500 nM was found for `O=C(c1cnc(-c2ccc(F)cn2)s1)N1CCc2[nH]cnc2[C@H]1c1nc2ccccc2s1` [Example 1339] in this work.
An AC50 of 1000 to 5000 nM was found for `O=C(c1cn(CC(F)F)nc1Cl)N1CCc2[nH]cnc2[C@@H]1c1nc2c(F)cccc2s1` [Example 1982, (R)-(3-chloro-1-(2,2-difluoroethyl)-1H-pyrazol-4-yl)(4-(4-fluorobenzo[d]thiazol-2-yl)-6,7-dihydro-1H-imidazo[4,5-c]pyridin-5(4H)-yl)methanone] in this work.
An AC50 of 1000 to 5000 nM was found for `O=C(c1cn(CC(F)(F)F)nc1C(F)F)N1CCc2[nH]cnc2[C@@H]1c1nc2c(F)cccc2s1` [Example 1988, (R)-(3-(difluoromethyl)-1-(2,2,2-trifluoroethyl)-1H-pyrazol-4-yl)(4-(4-fluorobenzo[d]thiazol-2-yl)-6,7-dihydro-1H-imidazo[4,5-c]pyridin-5(4H)-yl)methanone] in this work.
An AC50 of 1000 to 5000 nM was found for `O=C(c1nnc(-c2ccc(C(F)(F)F)cn2)o1)N1CCc2[nH]cnc2[C@@H]1c1nc2ccccc2s1` [Example 1829, (R)-(4-(benzo[d]thiazol-2-yl)-6,7-dihydro-1H-imidazo[4,5-c]pyridin-5(4H)-yl)(5-(5-(trifluoromethyl)pyridin-2-yl)-1,3,4-oxadiazol-2-yl)methanone] in this work.
An AC50 greater than 5000 nM was found for `O=C(c1cnn2cc(-c3ccccn3)ccc12)N1CCc2[nH]cnc2[C@@H]1c1nc2ccccc2s1` [Example 1212, (R)-(4-(benzo[d]thiazol-2-yl)-6,7-dihydro-1H-imidazo[4,5-c]pyridin-5(4H)-yl)(6-(pyridin-2-yl)pyrazolo[1,5-a]pyridin-3-yl)methanone] in this work.
An AC50 of less than 500 nM was found for `CC1(c2nc(C(F)F)c(C(=O)N3CCc4[nH]cnc4[C@H]3c3nc4ccccc4s3)o2)CC1` [Example 1851] in this work.
An AC50 of 500 to 1000 nM was found for `O=C(c1cncs1)N1CCc2[nH]cnc2[C@H]1c1nc2ccccc2[nH]1` [Example 914, (S)-(4-(1H-benzo[d]imidazol-2-yl)-6,7-dihydro-1H-imidazo[4,5-c]pyridin-5(4H)-yl)(thiazol-5-yl)methanone] in this work.
An AC50 greater than 5000 nM was found for `O=C(N1CCc2[nH]cnc2[C@@H]1c1nc2ccccc2s1)C1(CF)CC1` [Example 1256, (R)-(4-(benzo[d]thiazol-2-yl)-6,7-dihydro-1H-imidazo[4,5-c]pyridin-5(4H)-yl)(1-(fluoromethyl)cyclopropyl)methanone] in this work.
An AC50 of less than 500 nM was found for `CC[C@H](O)c1nc(C(F)F)c(C(=O)N2CCc3[nH]cnc3[C@H]2c2nc3c(F)cccc3s2)o1` [Example 2063] in this work.
An AC50 of less than 500 nM was found for `COCCn1nccc1C(=O)N1CCc2[nH]cnc2[C@H]1c1nc2c(F)cccc2s1` [Example 1723, (S)-(4-(4-fluorobenzo[d]thiazol-2-yl)-6,7-dihydro-1H-imidazo[4,5-c]pyridin-5(4H)-yl)(1-(2-methoxyethyl)-1H-pyrazol-5-yl)methanone] in this work.
An AC50 of 1000 to 5000 nM was found for `Cc1cccc2sc([C@H]3c4nc[nH]c4CCN3C(=O)c3ocnc3C(F)F)nc12` [Example 2012, (R)-(4-(difluoromethyl)oxazol-5-yl)(4-(4-methylbenzo[d]thiazol-2-yl)-6,7-dihydro-1H-imidazo[4,5-c]pyridin-5(4H)-yl)methanone] in this work.
An AC50 of 1000 to 5000 nM was found for `Cn1nc(CF)cc1C(=O)N1CCc2[nH]cnc2[C@@H]1c1nc2c(F)cccc2s1` [Example 1918, (R)-(4-(4-fluorobenzo[d]thiazol-2-yl)-6,7-dihydro-1H-imidazo[4,5-c]pyridin-5(4H)-yl)(3-(fluoromethyl)-1-methyl-1H-pyrazol-5-yl)methanone] in this work.
An AC50 greater than 5000 nM was found for `N#Cc1ccn2ncc(C(=O)N3CCc4[nH]cnc4[C@@H]3c3nc4ccc(F)cc4s3)c2c1` [Example 1156, (R)-3-(4-(6-fluorobenzo[d]thiazol-2-yl)-4,5,6,7-tetrahydro-1H-imidazo[4,5-c]pyridine-5-carbonyl)pyrazolo[1,5-a]pyridine-5-carbonitrile] in this work.
An AC50 of 500 to 1000 nM was found for `Cn1nccc1C(=O)N1CCc2[nH]cnc2[C@H]1c1nc2c(C(F)(F)F)cccc2s1` [Example 2111, (S)-(1-methyl-1H-pyrazol-5-yl)(4-(4-(trifluoromethyl)benzo[d]thiazol-2-yl)-6,7-dihydro-1H-imidazo[4,5-c]pyridin-5(4H)-yl)methanone] in this work.
An AC50 of 500 to 1000 nM was found for `O=C(N1CCc2[nH]cnc2[C@H]1c1nc2ccccc2s1)C(F)(F)C1CC1` [Example 1253] in this work.
An AC50 of less than 500 nM was found for `O=C(c1oc(NC2CC2)nc1C(F)(F)F)N1CCc2[nH]cnc2[C@H]1c1nc2ccccc2s1` [Example 1559] in this work.
An AC50 of 1000 to 5000 nM was found for `CC(C)(C)OC(=O)N1CC(c2nnc(C(=O)N3CCc4[nH]cnc4[C@@H]3c3nc4ccccc4s3)o2)C1` [Example 1894, (R)-tert-butyl 3-(5-(4-(benzo[d]thiazol-2-yl)-4,5,6,7-tetrahydro-1H-imidazo[4,5-c]pyridine-5-carbonyl)-1,3,4-oxadiazol-2-yl)azetidine-1-carboxylate] in this work.
An AC50 of 1000 to 5000 nM was found for `O=C(CCC1CC1)N1CCc2[nH]cnc2[C@@H]1c1nc2ccc(Cl)cc2[nH]1` [Example 938, (R)-1-(4-(6-chloro-1H-benzo[d]imidazol-2-yl)-6,7-dihydro-1H-imidazo[4,5-c]pyridin-5(4H)-yl)-3-cyclopropylpropan-1-one] in this work.
An AC50 of less than 500 nM was found for `O=C(c1oc(-c2ccccn2)nc1C(F)F)N1CCc2[nH]cnc2[C@@H]1c1nc2c(F)cccc2s1` [Example 1797, (R)-(4-(difluoromethyl)-2-(pyridin-2-yl)oxazol-5-yl)(4-(4-fluorobenzo[d]thiazol-2-yl)-6,7-dihydro-1H-imidazo[4,5-c]pyridin-5(4H)-yl)methanone] in this work.
An AC50 of less than 500 nM was found for `O=C(c1nnc(C2CC2)o1)N1CCc2[nH]cnc2[C@H]1c1nc2ccccc2s1` [Example 1363] in this work.
An AC50 of 500 to 1000 nM was found for `O=C(c1nnc(-c2ccccn2)o1)N1CCc2[nH]cnc2[C@@H]1c1nc2cccc(F)c2s1` [Example 1717, (R)-(4-(7-fluorobenzo[d]thiazol-2-yl)-6,7-dihydro-1H-imidazo[4,5-c]pyridin-5(4H)-yl)(5-(pyridin-2-yl)-1,3,4-oxadiazol-2-yl)methanone] in this work.
An AC50 of 1000 to 5000 nM was found for `O=C(c1oc(NC2CC2)nc1C(F)(F)F)N1CCCc2[nH]cnc2[C@@H]1c1nc2ccccc2s1` [Example 2128, (R)-(4-(benzo[d]thiazol-2-yl)-7,8-dihydroimidazo[4,5-c]azepin-5(1H,4H,6H)-yl)(2-(cyclopropylamino)-4-(trifluoromethyl)oxazol-5-yl)methanone] in this work.
An AC50 of less than 500 nM was found for `c1ccc2[nH]c([C@@H]3c4nc[nH]c4CCN3Cc3nccs3)nc2c1` (single isomer, unassigned) [Example 927] in this work.
An AC50 of less than 500 nM was found for `Cc1nc(C(C)(C)O)oc1C(=O)N1CCc2[nH]cnc2[C@H]1c1nc2c(F)cccc2s1` [Example 1471, (S)-(4-(4-fluorobenzo[d]thiazol-2-yl)-6,7-dihydro-1H-imidazo[4,5-c]pyridin-5(4H)-yl)(2-(2-hydroxypropan-2-yl)-4-methyloxazol-5-yl)methanone] in this work.

Same assay, conditions: A375 cells expressing human R408W PAH; 24 hrs with compound; 13C-Tyrosine by LC-MS; average where tested multiple times; read-out: AC50
An AC50 of 1000 to 5000 nM was found for `O=C(Cc1nccs1)N1CCc2[nH]cnc2C1c1nc2c(F)cccc2s1` (stereo not drawn) in this work.
An AC50 of 1000 to 5000 nM was found for `O=C(c1cc2ccccn2n1)N1CCc2nc[nH]c2C1c1nc2ccccc2s1` (stereo not drawn) in this work.
An AC50 of 1000 to 5000 nM was found for `CC1CN(C(=O)c2cnc(N3CCOCC3)o2)C(c2nc3ccccc3s2)c2nc[nH]c21` (stereo not drawn) in this work.
An AC50 greater than 5000 nM was found for `Cc1nnc(CN2CCc3[nH]cnc3C2c2nc3ccccc3[nH]2)s1` (stereo not drawn) in this work.
An AC50 of 1000 to 5000 nM was found for `CN1CCN(c2nnc(C(=O)N3CCc4[nH]cnc4C3c3nc4ccccc4s3)o2)CC1` (stereo not drawn) in this work.
An AC50 of 1000 to 5000 nM was found for `Cc1ncc(CC(=O)N2CCc3[nH]cnc3C2c2nc3ccccc3s2)o1` (stereo not drawn) in this work.
An AC50 of 1000 to 5000 nM was found for `Cc1cnc(C(=O)N2CCc3[nH]cnc3[C@H]2c2nc3ccccc3[nH]2)s1` [(S)-(4-(1H-benzo[d]imidazol-2-yl)-1,4,6,7-tetrahydro-5H-imidazo[4,5-c]pyridin-5-yl)(5-methylthiazol-2-yl)methanone] in this work.
An AC50 of 1000 to 5000 nM was found for `O=C(c1nnc(CCNC2CC2)o1)N1CCc2[nH]cnc2C1c1nc2ccccc2s1` (stereo not drawn) in this work.
An AC50 greater than 5000 nM was found for `O=C(c1nc2ccccc2s1)N1CCc2nc[nH]c2C1c1nc2ccc(Br)cc2s1` (stereo not drawn) in this work.
An AC50 of 1000 to 5000 nM was found for `O=C(N1CCC(O)C1)N1CCc2[nH]cnc2C1c1nc2ccccc2s1` (stereo not drawn) in this work.
An AC50 greater than 5000 nM was found for `CNC(=O)N1CC(C(=O)N2CCc3[nH]cnc3C2c2nc3ccccc3s2)C1` (stereo not drawn) in this work.
